We go through one compound from patent US20240366652A1, “OSTEOARTHRITIS PROGRESSION INHIBITOR AND PROGRESSION INHIBITION KIT” (KYUSHU UNIVERSITY, NATIONAL UNIVERSITY CORPORATION, priority 2021, published 2024).

One series has as its system IL6. The experiment in a line: IL6 mRNA expression in LPS-stimulated human OA cartilage cells (quantitative real-time PCR). It is filed as cell-based. Conditions: Amlexanox 100 μM and/or hyaluronic acid 1 mg/mL, 48 hours, LPS 10 μg/mL 6 hours, GAPDH internal standard. The method, then: (§1) Human cartilage cells were isolated and cultured from an excised cartilage fragment that is usually discarded after artificial knee joint replacement surgery. All donors provided consent to participate in the clinical research approved by the Ethics Review Committee. Due consideration was given to personal information of all donors in handling. Donor's knee joints were OA grade (Kellgren-lawrence) III to IV on X-rays.
(§2) Amlexanox (concentration in medium: 100 μM) and hyaluronic acid (concentration in medium: 1 mg/mL, weight-average molecular weight: 500,000 or more and 1,490,000 or less) were added to human OA cartilage cells and incubated for 48 hours. As a control, those that had been incubated for 48 hours without any administration, and those that were administered with Amlexanox (concentration in medium: 100 μM) and hyaluronic acid (concentration in medium: 1 mg/mL, weight-average molecular weight: 500,000 or more and 1,490,000 or less) and incubated for 48 hours were also prepared.
(§3) Human OA cartilage cells into which Amlexanox and hyaluronic acid were added were stimulated with lipopolysaccharide (LPS) (concentration in medium: 10 μg/mL) and incubated for 6 hours. Thereafter, mRNA was recovered from the above cells. After reverse transcription, quantitative real-time PCR was performed using LightCycler 2.0 system (Roche). GAPDH was used as an internal standard.

In another series the test system is MMP13. The experiment in a line: MMP13 mRNA expression in LPS-stimulated human OA cartilage cells (quantitative real-time PCR). It is filed as cell-based. The following applies: Amlexanox 100 μM and/or hyaluronic acid 1 mg/mL, 48 hours, LPS 10 μg/mL 6 hours, GAPDH internal standard. The method, then:
as §1, §2, §3
(In general: In qPCR the cycle at which signal appears reflects the starting amount.)

The next series concerns ADAMTS4. The experiment in a line: ADAMTS4 mRNA expression in LPS-stimulated human OA cartilage cells (quantitative real-time PCR). It is filed as cell-based. The following applies: Amlexanox 100 μM and/or hyaluronic acid 1 mg/mL, 48 hours, LPS 10 μg/mL 6 hours, GAPDH internal standard. How it is done:
as §1, §2, §3

Series [1] relates to OA-induced mice (DMM model). The experiment in a line: Cartilage degeneration in OA-induced mice (DMM model), OARSI histopathological score after intraarticular administration. It is filed as in vivo. The following applies: intraarticular 10 μL every 5 days for 8 weeks, Amlexanox 100 μM, hyaluronic acid 10 mg/mL, versus physiological saline group, 8 weeks after surgery. How it is done: OA was induced in 12-week-old male mice (wild type mice and GRK5KO mouse) by removing the ligament, which connects and secures the medial meniscus to the tibia, to cause the knee joint instability (DMM model) (hereinafter, referred to as a “DMM group” in some cases). In addition, as a control, mice subjected to a sham operation by the same method without removing the ligament were also prepared (hereinafter, referred to as a “sham group” in some cases). Subsequently, immediately after the OA induction, four groups were classified as follows: a group administered with physiological saline (10 μL) every 5 days for 8 weeks; a group administered with a hyaluronic acid solution (10 mg/mL, 10 μL); a group administered with an Amlexanox solution (100 μM, 10 μL), a group administered with a mixed solution (10 μL) of
Amlexanox (100 μM) and hyaluronic acid (10 mg/mL) (see FIG. 2A). Knee joint tissue sections of each group at a time point of 8 weeks after OA induction surgery were stained with safranin O. The results are shown in FIG. 2B (staining image).
In addition, the severity degree of OA was quantified by evaluating the stained sections based on histopathological grade recommended by OARSI.
Using the same method as in Example 2, a mixed solution of Amlexanox (100 μM) and hyaluronic acid (10 mg/mL) was administered to OA-induced mice every […] for 8 weeks (see FIG. 3A). […]

For series [2] the following is noted: after intraarticular administration; cited from earlier work.
The subject of a further series is GRK5. The following applies: reported in Reference 2; cited from earlier work.

For the compound `CC(C)c1ccc2oc3nc(N)c(C(=O)O)cc3c(=O)c2c1` [Amlexanox, 2-amino-7-isopropyl-5-oxo-5H-[1]benzopyrano [2,3-b]-pyridine-3-carboxylic acid], in the series on IL6, the “IL6 expression, control ratio” value was found to be 32.99%. The “MMP13 expression, control ratio” value with MMP13 stood at 43.83%. The “ADAMTS4 expression, control ratio” value in the series on ADAMTS4 was found to be 42.04%. For the same compound, in series [1], the “OARSI score, control group ratio” value came to 56.95%. For the same compound, the “half-life in joint fluid / in the joint” value in series [2] is “several hours”. Besides, in the series on GRK5, the “GRK5 inhibition (selectivity, in words)” value is reported as “selectively inhibits GRK5”.
